Test results taken from US11666577B2 (National Institute of Biological Sciences, Beijing, priority 2018, dated 2023).
Like-named read-outs stand apart in the source and are kept apart here.

Tested on: HT-29 cells
Test: Necroptosis assay (TNF-α/Smac mimetic/z-VAD, TSZ-induced) in HT-29 cells
Format: cell-based, human
How it was run: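 HT-29 cells were challenged with 20 ng/ml TNF-α, 100 nM Smac mimetic and 20 mM z-VAD while compound was added at the same time (library screen at 10 mM). After 24 h, viability was read as ATP luminescence (CellTiter-Glo) and normalized to DMSO-treated cells; values are means ± SD of duplicates.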

[1] = Series 1 (Table 1) compounds 1-146, HT-29 cells, TNF-α/Smac mimetic/z-VAD, 24 hrs, cell viability by ATP level, read-out: Series 1 compound necroptosis activity
[2] = Homo sapiens, Series 1 (Table 1) compounds 1-146, HT-29 cells, TNF-α/Smac mimetic/z-VAD, 24 hrs, cell viability by ATP level, read-out: Series 1 compound necroptosis activity
[3] = Homo sapiens, Series 2 (Table 2) compounds, HT-29 necroptosis assay, read-out: Series 2 compound necroptosis activity
[4] = Series 1 (Table 1) compounds 147-176, activity extrapolated, read-out: Series 1 compound necroptosis activity (extrapolated)

Compound: Cn1c(=O)c2c(nc(S(=O)(=O)Cc3ccccc3C(N)=O)n2C)n(C)c1=O [Compound 45, 2-((1,3,7-trimethyl-2,6-dioxo-2,3,6,7-tetrahydro-1H-purin-8-ylsulfonyl)methyl)benzamide]
- EC50 [1]: 1 to 1000 µM

Compound: CCCn1c(=O)n(C)c(=O)c2c1nc(S(C)(=O)=O)n2C [Compound 101, 1,7-dimethyl-8-(methylsulfonyl)-3-propyl-1H-purine-2,6(3H,7H)-dione]
- EC50 [2]: 1 to 100 µM

Compound: Cn1c(=O)c2c(nc(S(=O)(=O)Cc3cccc(Br)c3)n2C)n(C)c1=O [Compound 33, 8-(3-bromobenzylsulfonyl)-1,3,7-trimethyl-1H-purine-2,6(3H,7H)-dione]
- EC50 [1]: 1 to 1000 µM

Compound: Cn1c(=O)c2c(nc(S(C)(=O)=O)n2C)n(CC#Cc2ccnc(N)n2)c1=O [Compound 24]
- EC50 [3]: 0.001 to 0.1 µM

Compound: Cn1c(=O)c2c(nc(S(=O)(=O)NCc3ccccc3)n2C)n(C)c1=O [Compound 55]
- EC50 [3]: 10 to 100 µM

Compound: CCCSc1nc2c(c(=O)n(C)c(=O)n2C)n1CC [Compound 78, 7-ethyl-1,3-dimethyl-8-(propylthio)-1H-purine-2,6(3H,7H)-dione]
- EC50 [1]: 1 to 1000 µM

Compound: Cn1c(=O)c2c(nc(S(=O)(=O)Cc3cccnc3)n2C)n(C)c1=O [Compound 50, 1,3,7-trimethyl-8-(pyridin-3-ylmethylsulfonyl)-1H-purine-2,6(3H,7H)-dione]
- EC50 [1]: 1 to 1000 µM

Compound: Cn1c(=O)c2c(nc(S(C)(=O)=O)n2C)n(CC#Cc2ccc(=O)[nH]c2)c1=O [Compound 165]
- EC50 [4]: 1 to 1000 µM

Compound: Cn1c(=O)c2c(nc(S(C)(=O)=O)n2C)n(CC#Cc2cc(NC(=O)C3CC3)cc(NC(=O)C3CC3)c2)c1=O [Compound 27]
- EC50 [3]: 0.001 to 0.1 µM

Compound: Cn1c(=O)c2c(nc(S(C)(=O)=O)n2C)n(CC#Cc2cc(NC(=O)CN3CCOCC3)cc(NC(=O)CN3CCOCC3)c2)c1=O [Compound 26]
- EC50 [3]: 0.001 to 0.1 µM

Compound: CCCNc1cccc(C#CCn2c(=O)n(C)c(=O)c3c2nc(S(C)(=O)=O)n3C)c1 [Compound 162]
- EC50 [4]: 1 to 1000 µM

Compound: Cn1c(=O)c2c(nc(S(N)(=O)=O)n2C)n(CC#Cc2cccc(O)c2)c1=O [Compound 156]
- EC50 [4]: 1 to 1000 µM

Compound: Cn1c(=O)c2c(nc([S+](C)[O-])n2C)n(CC#Cc2cccc(O)c2)c1=O (centres unmarked) [Compound 8]
- EC50 [3]: 0.001 to 0.1 µM

Compound: CCOc1ccc(OC)cc1CS(=O)(=O)c1nc2c(c(=O)n(C)c(=O)n2C)n1C [Compound 65, 8-(2-ethoxy-5-methoxybenzylsulfonyl)-1,3,7-trimethyl-1H-purine-2,6(3H,7H)-dione]
- EC50 [1]: 1 to 1000 µM

Compound: CCn1c(SC)nc2c1c(=O)n(C)c(=O)n2C [Compound 73, 7-ethyl-1,3-dimethyl-8-(methylthio)-1H-purine-2,6(3H,7H)-dione]
- EC50 [1]: 1 to 1000 µM

Compound: CCn1c(S(C)(=O)=O)nc2c1c(=O)n(C)c(=O)n2C [Compound 74, 7-ethyl-1,3-dimethyl-8-(methylsulfonyl)-1H-purine-2,6(3H,7H)-dione]
- EC50 [2]: 1 to 10 µM

Compound: Cn1c(=O)c2nc(S(C)(=O)=O)n(C)c2n(C)c1=O [Compound 146, 1,3,9-trimethyl-8-(methylsulfonyl)-3,9-dihydro-1H-purine-2,6-dione]
- EC50 [1]: 1 to 1000 µM

Compound: Cn1c(=O)c2c(nc(S(C)(=O)=O)n2C)n(CC#Cc2cccc(NCc3ccccc3)c2)c1=O [Compound 13]
- EC50 [3]: 0.001 to 0.1 µM

Compound: Cn1c(=O)c2c(nc(S(C)(=O)=O)n2C)n(CC#N)c1=O [Compound 107, 2-(1,7-dimethyl-8-(methylsulfonyl)-2,6-dioxo-1H-purin-3(2H,6H,7H)-yl)acetonitrile]
- EC50 [2]: 1 to 100 µM

Compound: Cn1c(=O)c2c(nc(S(C)(=O)=O)n2C)n(CC#Cc2cc(NCC3CC3)cc(NCC3CC3)c2)c1=O [Compound 37]
- EC50 [3]: 0.001 to 0.1 µM

Compound: CCC[S+]([O-])c1nc2c(c(=O)n(C)c(=O)n2C)n1C (centres unmarked) [Compound 9, 1,3,7-trimethyl-8-(propylsulfinyl)-1H-purine-2,6(3H,7H)-dione]
- EC50 [1]: 1 to 1000 µM

Compound: Cn1c(=O)c2c(nc(S(=O)(=O)CC3CC3)n2C)n(CC#Cc2cc(NC(=O)CN3CCOCC3)ccc2Cl)c1=O [Compound 22]
- EC50 [3]: 0.001 to 0.1 µM

Compound: CC[S+]([O-])c1nc2c(c(=O)n(C)c(=O)n2C)n1C (centres unmarked) [Compound 6, 8-(ethylsulfinyl)-1,3,7-trimethyl-1H-purine-2,6(3H,7H)-dione]
- EC50 [1]: 1 to 1000 µM

Compound: Cn1c(=O)c2c(nc(S(C)(=O)=O)n2C)n(CC#Cc2cccc3[nH]ccc23)c1=O [Compound 169]
- EC50 [4]: 1 to 1000 µM

Compound: Cn1c(=O)c2c(nc(S(C)(=O)=O)n2C)n(C)c1=O [Compound 4, 1,3,7-trimethyl-8-(methylsulfonyl)-1H-purine-2,6(3H,7H)-dione]
- EC50 [2]: 1 to 10 µM

Compound: CCCNS(=O)(=O)c1nc2c(c(=O)n(C)c(=O)n2C)n1C [Compound 58]
- EC50 [3]: 10 to 100 µM

Compound: Cn1c(=O)c2c(nc(S(C)(=O)=O)n2C)n(CC#Cc2ccc3c(c2)NCCC3)c1=O [Compound 170]
- EC50 [4]: 1 to 1000 µM

Compound: C#CCn1c(=O)n(C)c(=O)c2c1nc(S(C)(=O)=O)n2C [Compound 106, 1,7-dimethyl-8-(methylsulfonyl)-3-(prop-2-ynyl)-1H-purine-2,6(3H,7H)-dione]
- EC50 [2]: 1 to 10 µM

Compound: Cn1c(=O)c2c(nc(S(=O)(=O)Cc3ccc[n+]([O-])c3)n2C)n(C)c1=O [Compound 51, 3-((1,3,7-trimethyl-2,6-dioxo-2,3,6,7-tetrahydro-1H-purin-8-ylsulfonyl)methyl)pyridine 1-oxide]
- EC50 [1]: 1 to 1000 µM

Compound: Cn1c(=O)c2c(nc(S(=O)(=O)CC3CC3)n2C)n(CC#Cc2cc(NC(=O)C3CC3)nc(C(F)(F)F)c2)c1=O [Compound 45]
- EC50 [3]: 0.001 to 0.1 µM

Compound: Cn1c(=O)c2c(nc(S(C)(=O)=O)n2C)n(CC#Cc2cc(N)cc(Br)c2)c1=O [Compound 168]
- EC50 [4]: 1 to 1000 µM

Compound: CCCn1c(=O)c2c(nc(S(C)(=O)=O)n2C)n(C)c1=O [Compound 90, 3,7-dimethyl-8-(methylsulfonyl)-1-propyl-1H-purine-2,6(3H,7H)-dione]
- EC50 [1]: 1 to 1000 µM

Compound: C=CC(=O)Nc1cccc(C#CCn2c(=O)n(C)c(=O)c3c2nc(S(=O)(=O)CC2CC2)n3C)c1 [Compound 160]
- EC50 [4]: 1 to 1000 µM

Compound: Cn1c(=O)c2c(nc(S(=O)(=O)CC3CC3)n2C)n(Cc2cccc(F)c2)c1=O [Compound 134, 8-((cyclopropylmethyl)sulfonyl)-3-(3-fluorobenzyl)-1,7-dimethyl-1H-purine-2,6(3H,7H)-dione]
- EC50 [2]: 1 to 100 µM

Compound: Cn1c(=O)c2c(nc(S(=O)(=O)Cc3ccccc3F)n2C)n(C)c1=O [Compound 26, 8-(2-fluorobenzylsulfonyl)-1,3,7-trimethyl-1H-purine-2,6(3H,7H)-dione]
- EC50 [1]: 1 to 1000 µM

Compound: Cn1c(=O)c2c(nc(S(=O)(=O)Cc3ccc(C4(C(F)(F)F)N=N4)cc3)n2C)n(C)c1=O [Compound 41, 1,3,7-trimethyl-8-(4-(3-(trifluoromethyl)-3H-diazirin-3-yl)benzylsulfonyl)-1H-purine-2,6(3H,7H)-dione]
- EC50 [1]: 1 to 1000 µM

Compound: Cn1c(=O)c2c(nc(S(=O)(=O)CC3CC3)n2C)n(Cc2ccc(Br)cc2)c1=O [Compound 141, 3-(4-bromobenzyl)-8-((cyclopropylmethyl)sulfonyl)-1,7-dimethyl-1H-purine-2,6(3H,7H)-dione]
- EC50 [2]: 1 to 100 µM

Compound: Cn1c(=O)c2c(nc(S(=O)(=O)CC3CC3)n2C)n(Cc2ccc(Cl)cc2)c1=O [Compound 138, 3-(4-chlorobenzyl)-8-((cyclopropylmethyl)sulfonyl)-1,7-dimethyl-1H-purine-2,6(3H,7H)-dione]
- EC50 [2]: 1 to 100 µM

Compound: Cn1c(=O)c2c(nc(S(=O)(=O)Cc3ccccc3Br)n2C)n(C)c1=O [Compound 32, 8-(2-bromobenzylsulfonyl)-1,3,7-trimethyl-1H-purine-2,6(3H,7H)-dione]
- EC50 [1]: 1 to 1000 µM

Compound: Cn1c(=O)c2c(nc(S(=O)(=O)CC3CC3)n2C)n(CC#Cc2cccc(NC(=O)OC(C)(C)C)c2)c1=O [Compound 123, tert-butyl(3-(3-(8-((cyclopropylmethyl)sulfonyl)-1,7-dimethyl-2,6-dioxo-1,2,6,7-tetrahydro-3H-purin-3-yl)prop-1-yn-1-yl)phenyl)carbamate]
- EC50 (Series 1 (Table 1) compounds, HT-29 cells, TNF-α/Smac mimetic/z-VAD, 24 hrs, cell viability by ATP level, read-out: Series 1 compound necroptosis activity): 0.001 to 1 µM

Compound: Cn1c(=O)c2c(nc3n2CCS3(=O)=O)n(CC#Cc2cccc(O)c2)c1=O [Compound 148]
- EC50 [4]: 1 to 1000 µM

Compound: Cn1c(=O)c2c(nc(S(=O)(=O)Cc3ccc(Br)cc3)n2C)n(C)c1=O [Compound 34, 8-(4-bromobenzylsulfonyl)-1,3,7-trimethyl-1H-purine-2,6(3H,7H)-dione]
- EC50 [1]: 1 to 1000 µM

Compound: CSc1nc2c(c(=O)n(C)c(=O)n2C)n1CC(N)=O [Compound 85, 2-(1,3-dimethyl-8-(methylthio)-2,6-dioxo-2,3-dihydro-1H-purin-7(6H)-yl)acetamide]
- EC50 [1]: 1 to 1000 µM

Compound: C=CC(=O)Nc1cccc(C#CCn2c(=O)n(C)c(=O)c3c2nc(S(=O)(=O)CCO)n3C)c1 [Compound 159]
- EC50 [4]: 1 to 1000 µM

Compound: Cn1c(=O)c2c(nc(S(=O)(=O)CCCO)n2C)n(C)c1=O [Compound 3]
- EC50 [3]: 0.1 to 10 µM

Compound: Cn1c(=O)c2c(nc(S(C)(=O)=O)n2C)n(CC#Cc2cccc(NCCN3CCOCC3)c2)c1=O [Compound 14]
- EC50 [3]: 0.001 to 0.1 µM

Compound: Cn1c(=O)c2c(nc(S(=O)(=O)Cc3cccc(C(N)=O)c3)n2C)n(C)c1=O [Compound 46, 3-((1,3,7-trimethyl-2,6-dioxo-2,3,6,7-tetrahydro-1H-purin-8-ylsulfonyl)methyl)benzamide]
- EC50 [1]: 1 to 1000 µM

Compound: COCC(=O)Nc1cc(C#CCn2c(=O)n(C)c(=O)c3c2nc(S(C)(=O)=O)n3C)cc(NC(=O)C2CC2)c1 [Compound 38]
- EC50 [3]: 0.001 to 0.1 µM

Compound: CCNC(=O)C#CCn1c(=O)n(C)c(=O)c2c1nc(S(C)(=O)=O)n2C [Compound 132, 4-(1,7-dimethyl-8-(methylsulfonyl)-2,6-dioxo-1H-purin-3(2H,6H,7H)-yl)-N-ethylbut-2-ynamide]
- EC50 [1]: 1 to 1000 µM

Compound: CCS(=O)(=O)c1nc2c(c(=O)n(C)c(=O)n2CC#Cc2cc(NC(=O)C3CC3)cc(NC(=O)C3CC3)c2)n1C [Compound 50]
- EC50 [3]: 0.001 to 0.1 µM
